Values quoted from earlier work in patent US8097606B2, “Antiglucocorticoids for the treatment of catatonia” (Corcept Therapeutics, Inc., priority 2003, dated 2012).

## CC#C[C@]1(O)CC[C@H]2[C@@H]3CCC4=CC(=O)CCC4=C3[C@@H](c3ccc(N(C)C)cc3)C[C@@]21C [mifepristone, 17-β-hydroxy-11-β-(4-dimethyl-aminophenyl)-17-α-(1-propynyl)-estra-4,9-dien-3-one]
  share of the daily dose excreted in the urine: less than 0.5%
